In PubChem BioAssay (NCI):
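Protocol summary: plate cells (96-well), add compound at 5 concentrations, incubate 48 h, interpolate endpoints linearly. The concentration for 50% growth inhibition is given as GI50. TGI is the concentration that stops growth completely.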

Legend:
Test in all cases: NCI anticancer screen, dose series, 48 h
[1] = tested on: OVCAR-4 ovarian
[2] = tested on: CCRF-CEM leukemia
[3] = tested on: SK-MEL-2 melanoma
[4] = tested on: TK-10 renal
[5] = tested on: A549 NSCLC
[6] = tested on: UO-31 renal
[7] = tested on: NCI-H460 lung
[8] = tested on: HCC-2998 colon
[9] = tested on: SF-268 CNS
[10] = tested on: SF-539 CNS
[11] = tested on: MDA-MB-435
[12] = tested on: U251 CNS
[13] = tested on: SN12C renal
[14] = tested on: KM12 colon
[15] = tested on: SR leukemia
[16] = tested on: NCI/ADR-RES ovarian
[17] = tested on: SW-620 colon
[18] = tested on: HCT-15 colon
[19] = tested on: SK-MEL-5 melanoma
[20] = tested on: MCF7 breast
[21] = tested on: SNB-19 CNS
[22] = tested on: BT-549 breast
[23] = tested on: COLO 205 colon
[24] = tested on: HS 578T breast
[25] = tested on: DU-145 prostate
[26] = tested on: PC-3 prostate
[27] = tested on: IGROV1 ovarian
[28] = tested on: RPMI-8226 leukemia
[29] = tested on: OVCAR-3 ovarian
[30] = tested on: NCI-H23 lung
[31] = tested on: MOLT-4 leukemia
[32] = tested on: SNB-75 CNS
[33] = tested on: 786-0 renal
[34] = tested on: OVCAR-8 ovarian
[35] = tested on: HCT-116 colon
[36] = tested on: ACHN renal
[37] = tested on: SF-295 CNS
[38] = tested on: NCI-H522 lung
[39] = tested on: UACC-257 melanoma
[40] = tested on: HOP-62 NSCLC
[41] = tested on: NCI-H226 lung
[42] = tested on: RXF 393 renal
[43] = tested on: EKVX NSCLC
[44] = tested on: SK-MEL-28 melanoma
[45] = tested on: HT29 colon
[46] = tested on: M14 melanoma
[47] = tested on: A498 renal
[48] = tested on: SK-OV-3 ovarian
[49] = tested on: UACC-62 melanoma
[50] = tested on: MALME-3M melanoma
[51] = tested on: OVCAR-5 ovarian
[52] = tested on: MDA-MB-231 breast
[53] = tested on: LOX IMVI melanoma
[54] = tested on: HL-60(TB) leukemia
[55] = tested on: HOP-92 NSCLC
[56] = tested on: T-47D breast

SMILES: COc1ccc(C(=O)/C=C/c2ccc(OCc3ccc(Cl)cc3)cc2)cc1OC
- GI50 [1]: 44.2 µM
- TGI [1]: 372 µM
- GI50 [2]: 190 µM
- TGI [2]: > 1 mM
- GI50 [3]: 252 µM
- TGI [3]: > 1 mM
- GI50 [4]: 396 µM
- TGI [4]: > 1 mM
- GI50 [5]: 77.1 µM
- TGI [5]: > 1 mM
- GI50 [6]: 190 µM
- TGI [6]: > 1 mM
- GI50 [7]: 68.6 µM
- TGI [7]: > 1 mM
- GI50 [8]: 960 µM
- TGI [8]: > 1 mM
- GI50 [9]: 159 µM
- TGI [9]: > 1 mM
- GI50 [10]: 159 µM
- TGI [10]: > 1 mM
- GI50 [11]: 150 µM
- TGI [11]: > 1 mM
- GI50 [12]: 58.8 µM
- TGI [12]: 314 µM
- GI50 [13]: 221 µM
- TGI [13]: > 1 mM
- GI50 [14]: 171 µM
- TGI [14]: > 1 mM
- GI50 [15]: 148 µM
- TGI [15]: > 1 mM
- GI50 [16]: 109 µM
- TGI [16]: > 1 mM
- GI50 [17]: 196 µM
- TGI [17]: > 1 mM
- GI50 [18]: 112 µM
- TGI [18]: > 1 mM
- GI50 [19]: 64.3 µM
- TGI [19]: 264 µM
- GI50 [20]: 47.4 µM
- TGI [20]: > 1 mM
- GI50 [21]: 42.7 µM
- TGI [21]: 206 µM
- GI50 [22]: 81.8 µM
- TGI [22]: 586 µM
- GI50 [23]: 253 µM
- TGI [23]: > 1 mM
- GI50 [24]: 108 µM
- TGI [24]: > 1 mM
- GI50 [25]: 202 µM
- TGI [25]: > 1 mM
- GI50 [26]: 57.6 µM
- TGI [26]: 435 µM
- GI50 [27]: 118 µM
- TGI [27]: > 1 mM
- GI50 [28]: 98.4 µM
- TGI [28]: 773 µM
- GI50 [29]: 55.6 µM
- TGI [29]: 230 µM
- GI50 [30]: 172 µM
- TGI [30]: > 1 mM
- GI50 [31]: 276 µM
- TGI [31]: > 1 mM
- GI50 [32]: 111 µM
- TGI [32]: 484 µM
- GI50 [33]: 71.2 µM
- TGI [33]: 470 µM
- GI50 [34]: 54.8 µM
- TGI [34]: 633 µM
- GI50 [35]: 40.8 µM
- TGI [35]: > 1 mM
- GI50 [36]: 57.9 µM
- TGI [36]: > 1 mM
- GI50 [37]: 189 µM
- TGI [37]: > 1 mM
- GI50 [38]: 88.4 µM
- TGI [38]: 351 µM
- GI50 [39]: 244 µM
- TGI [39]: > 1 mM
- GI50 [40]: 110 µM
- TGI [40]: 419 µM
- GI50 [41]: 63.1 µM
- TGI [41]: 635 µM
- GI50 [42]: 90.6 µM
- TGI [42]: 502 µM
- GI50 [43]: 66.4 µM
- TGI [43]: > 1 mM
- GI50 [44]: 366 µM
- TGI [44]: > 1 mM
- GI50 [45]: 163 µM
- TGI [45]: > 1 mM
- GI50 [46]: 150 µM
- TGI [46]: > 1 mM
- GI50 [47]: 141 µM
- TGI [47]: 604 µM
- GI50 [48]: 142 µM
- TGI [48]: 607 µM
- GI50 [49]: 76.8 µM
- TGI [49]: 376 µM
- GI50 [50]: 176 µM
- TGI [50]: 639 µM
- GI50 [51]: 499 µM
- TGI [51]: > 1 mM
- GI50 [52]: 94.6 µM
- TGI [52]: > 1 mM
- GI50 [53]: 91.3 µM
- TGI [53]: > 1 mM
- GI50 [54]: 65 µM
- TGI [54]: 296 µM
- GI50 [55]: 44.5 µM
- TGI [55]: 365 µM
- GI50 [56]: 71.9 µM
- TGI [56]: > 1 mM
